Values quoted from earlier work as cited in patent publication US8759352B2, “1-(4-ureidobenzoyl)piperazine derivatives” (Merck Sharp & Dohme B.V., priority 2008, dated 2014).

Tests used:
[1] = system: vascular smooth muscle cell; settings: in vitro and in vivo; Blaschke et al. 2004
tumours = settings: animal model of prostate cancer; Chuu et al. 2006
neointima formation = settings: in vitro and in vivo; Blaschke et al. 2004
β-amyloid = settings: Riddell et al. 2007

## O=S(=O)(c1ccccc1)N(CC(F)(F)F)c1ccc(C(O)(C(F)(F)F)C(F)(F)F)cc1 [Example T0901317]
[1]
  vascular smooth muscle cell proliferation: inhibit
tumours
  progression of tumours: delayed progression of tumours
Neointima formation
  neointima formation following balloon injury: inhibit
β-amyloid
  deposition of β-amyloid: lower deposition of β-amyloid
  memory: improve memory
